{"source": "patent US20230120597A1", "about": "“CO-AGONISTS AT GLP-1 AND GIP RECEPTORS SUITABLE FOR ORAL DELIVERY” (Novo Nordisk A/S, priority 2020, published 2023)", "key": {"[1]": {"target": "T1, human GLP-1 receptor (Homo sapiens, UniProt P43220)", "T1 construct": "expressed in transfected cells; host or cells: BHK (parent line BHKTS13), clone BHK CRE luc2P hGLP-1R", "T1 sequence (P43220 24-463)": "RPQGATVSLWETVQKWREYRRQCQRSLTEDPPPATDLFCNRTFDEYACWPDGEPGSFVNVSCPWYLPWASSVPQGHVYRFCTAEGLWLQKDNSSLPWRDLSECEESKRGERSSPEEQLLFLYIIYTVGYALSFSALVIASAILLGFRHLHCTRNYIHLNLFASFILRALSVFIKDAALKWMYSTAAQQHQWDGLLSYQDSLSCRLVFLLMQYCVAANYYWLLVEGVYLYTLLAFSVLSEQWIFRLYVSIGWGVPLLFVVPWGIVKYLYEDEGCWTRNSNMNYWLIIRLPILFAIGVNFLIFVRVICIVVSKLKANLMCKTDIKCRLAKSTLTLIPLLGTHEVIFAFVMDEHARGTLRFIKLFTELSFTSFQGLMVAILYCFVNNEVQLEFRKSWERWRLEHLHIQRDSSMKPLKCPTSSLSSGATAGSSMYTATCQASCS", "test": "In vitro functional potency, CRE luciferase reporter gene assay, whole BHK cells expressing hGLP-1R", "type": "cell-based", "settings": "BHK CRE luc2P hGLP-1R cells"}, "[2]": {"target": "T2, human GIP receptor (Homo sapiens, UniProt P48546)", "T2 construct": "expressed in transfected cells; host or cells: BHK (parent line BHKTS13), clone BHK CRE luc2P hGIPR", "T2 sequence (P48546 22-466)": "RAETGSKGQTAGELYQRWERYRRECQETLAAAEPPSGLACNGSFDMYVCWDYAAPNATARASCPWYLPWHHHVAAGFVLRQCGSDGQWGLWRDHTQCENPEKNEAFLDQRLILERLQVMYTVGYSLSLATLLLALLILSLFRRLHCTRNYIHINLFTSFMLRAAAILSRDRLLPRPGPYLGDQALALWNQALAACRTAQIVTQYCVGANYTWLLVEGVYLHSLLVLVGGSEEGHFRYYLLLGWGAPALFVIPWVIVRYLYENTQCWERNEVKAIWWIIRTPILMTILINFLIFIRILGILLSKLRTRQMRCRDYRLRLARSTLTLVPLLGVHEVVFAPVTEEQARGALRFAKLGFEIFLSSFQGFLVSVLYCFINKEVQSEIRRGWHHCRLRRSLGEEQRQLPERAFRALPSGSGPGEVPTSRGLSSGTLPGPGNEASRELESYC", "test": "In vitro functional potency, CRE luciferase reporter gene assay, whole BHK cells expressing hGIPR", "type": "cell-based", "settings": "BHK CRE luc2P hGIPR cells"}}, "note": "Where two headings read alike, the source gives them in different places. Starred links: 1 amine or outer side, 2 acyl side, 3 side chain; linkers in the order of their positions; H or OH if unused. Non-standard residues stand in square brackets, D forms with d. Residues, ends and D or L forms follow the SMILES beside them. Groups on a side chain read outwards from the residue. *: point of attachment. C18 diacid = O=C(O)CCCCCCCCCCCCCCCCC(=O)*; γGlu = O=C(O)[C@H](CCC(=O)[*:2])N[*:1]; εLys = N[C@@H](CCCCN[*:1])C(=O)[*:2]; Aib = CC(C)(N)C(=O)O", "data": [{"smiles": "CC[C@H](C)[C@H](NC(=O)[C@H](Cc1ccccc1)NC(=O)[C@H](CCC(=O)O)NC(=O)[C@H](CCCNC(=N)N)NC(=O)[C@H](C)NC(=O)[C@H](C)NC(=O)[C@H](CCC(N)=O)NC(=O)[C@H](CCCCNC(=O)[C@@H](N)CCCCNC(=O)[C@@H](N)CCCCNC(=O)CC[C@H](NC(=O)CCCCCCCCCCCCCCCCC(=O)O)C(=O)O)NC(=O)[C@H](CCC(=O)O)NC(=O)[C@H](CC(C)C)NC(=O)[C@H](CC(C)C)NC(=O)[C@@H](NC(=O)[C@H](CO)NC(=O)[C@H](Cc1ccc(O)cc1)NC(=O)[C@H](CC(=O)O)NC(=O)[C@H](CO)NC(=O)[C@@H](NC(=O)[C@H](Cc1ccccc1)NC(=O)[C@@H](NC(=O)CNC(=O)[C@H](CCC(=O)O)NC(=O)C(C)(C)NC(=O)[C@@H](N)Cc1ccc(O)cc1)[C@@H](C)O)[C@@H](C)O)[C@@H](C)CC)C(=O)N[C@@H](CC(N)=O)C(=O)N[C@@H](Cc1c[nH]c2ccccc12)C(=O)N[C@@H](CC(C)C)C(=O)N[C@@H](CC(C)C)C(=O)N[C@@H](C)C(=O)NCC(=O)NCC(=O)N1CCC[C@H]1C(=O)N[C@@H](CO)C(=O)N[C@@H](CO)C(=O)NCC(=O)N[C@@H](C)C(=O)N1CCC[C@H]1C(=O)N1CCC[C@H]1C(=O)N1CCC[C@H]1C(=O)N[C@@H](CO)C(=O)O", "note": "[Compound No. 15] (H-Y[Aib]EGTFTSDYSILLEK([εLys-εLys-γGlu-C18 diacid])QAAREFINWLLAGGPSSGAPPPS-OH)", "values": [{"measurement": "EC50", "setting": "[1]; 0% HSA, read-out: hGLP-1R, CRE Luc 0% HSA EC50", "result": 0.005, "unit": "nM"}, {"measurement": "EC50", "setting": "[1]; hGLP-1R, CRE Luc 1% HSA EC50, 1% HSA", "result": 0.13, "unit": "nM"}, {"measurement": "EC50", "setting": "[2]; 0% HSA, read-out: hGIPR, CRE Luc 0% HSA EC50", "result": 0.0071, "unit": "nM"}, {"measurement": "EC50", "setting": "[2]; hGIPR, CRE Luc 1% HSA EC50, 1% HSA", "result": 0.138, "unit": "nM"}]}]}
